# Patent US20260098061A1, “EPHA2-BINDING PENDING PEPTIDE AND COMPOSITION COMPRISING SAME” (PeptiDream Inc., priority 2022, published 2026)
# Numbered stars: 1 amine (or outer) side, 2 acyl side, 3 side chain; on linkers, the order of the positions; unused ones are H or OH. Bridge positions count the residues as written; N and C are the ends. Square brackets hold non-standard residues; d marks the D form. Primed or numbered codes have the meaning given here. Side chains are listed from the residue outwards. Peptide text beside a SMILES is read from it. * marks the point of attachment. Qglucamine = (2S)-2-amino-4-{[(2S,3R,4R,5R)-2,3,4,5,6-pentahydroxyhexyl]carbamoyl}butanoic acid, O=C(CC[C@H](N[*:1])C(=O)[*:2])NC[C@H](O)[C@@H](O)[C@H](O)[C@H](O)CO; Hgn(3) = 2-amino-5-carbamoylpentanoic acid (homoglutamine), NC(=O)CCC[C@H](N[*:1])C(=O)[*:2]; Hgn = (2S)-2-amino-5-carbamoylpentanoic acid, NC(=O)CCC[C@H](N[*:1])C(=O)[*:2]; NH(1-deoxy-D-glucityl) = OC[C@@H](O)[C@@H](O)[C@H](O)[C@@H](O)CN*; Trp(1-Me,7-Cl) = Cn1cc(C[C@H](N)C(=O)O)c2cccc(Cl)c21; dPhe(3-CONH2) = NC(=O)c1cccc(C[C@@H](N)C(=O)O)c1; X3 = CN([C@@H](Cc1ccnc(N)c1)C(=O)[*:2])[*:1]; Piperazinyl(4-CH2COOH) = O=C(O)CN1CCN(*)CC1; Trp(1-Me) = Cn1cc(C[C@H](N)C(=O)O)c2ccccc21; NMemTyr = CN[C@@H](Cc1cccc(O)c1)C(=O)O; NMe3Pal = CN[C@@H](Cc1cccnc1)C(=O)O; NMeF = CN[C@@H](Cc1ccccc1)C(=O)O; hArg = N=C(N)NCCCC[C@H](N)C(=O)O; hCit = NC(=O)NCCCC[C@H](N)C(=O)O; Gly(cBu) = N[C@H](C(=O)O)C1CCC1; NMeE = CN[C@@H](CCC(=O)O)C(=O)O; Aad = N[C@@H](CCCC(=O)O)C(=O)O; Pen = CC(C)(S)[C@H](N)C(=O)O; CO = O=C([*:1])[*:2]
# B1: PDC_EphA2-00019427 (peptide)
# peptide: {CH2CO}-[dPhe(3-CONH2)][NMeF]N[Gly(cBu)][Hgn(3)][NMeE][Trp(1-Me,7-Cl)][hCit][Trp(1-Me)]T[hArg]C-NH2
# modifications: thioether N-12
# B2: PDC_EphA2-00019437 (peptide)
# peptide: {CH2CO}-[dPhe(3-CONH2)][NMe3Pal]N[Gly(cBu)][Hgn][NMe3Pal][Trp(1-Me,7-Cl)][Qglucamine][Trp(1-Me)]T[Hgn]C-NH2
# modifications: thioether N-12
# SMILES: C[C@@H](O)[C@@H]1NC(=O)[C@H](Cc2cn(C)c3ccccc23)NC(=O)[C@H](CCC(=O)NC[C@H](O)[C@@H](O)[C@H](O)[C@H](O)CO)NC(=O)[C@H](Cc2cn(C)c3c(Cl)cccc23)NC(=O)[C@H](Cc2cccnc2)N(C)C(=O)[C@H](CCCC(N)=O)NC(=O)[C@H](C2CCC2)NC(=O)[C@H](CC(N)=O)NC(=O)[C@H](Cc2cccnc2)N(C)C(=O)[C@@H](Cc2cccc(C(N)=O)c2)NC(=O)CSC[C@@H](C(N)=O)NC(=O)[C@H](CCCC(N)=O)NC1=O
# Molecular target: T1, Recombinant Human EphA2 Fc Protein (Homo sapiens, UniProt P29317)
# T1 construct: purchased Elabscience
# Experiment: SPR interaction analysis (Biacore T200), kinetics of peptides against EphA2
# Format: binding
# Details: Recombinant Human EphA2 Fc Protein captured by Human Antibody Capture kit; single-cycle kinetics; 25° C.; HBS-P+ buffer with 1% DMSO
# Outline: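 KD derived from ka and kd, fitted on baseline-subtracted sensorgrams from single-cycle kinetics of five peptide dilutions. Running buffer: HBS-P+ (pH 7.4) plus 1% DMSO, 25° C, Biacore T200. Recombinant human EphA2-Fc held on an antibody capture surface.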
row,Molecule,Kd [nM]
1,"CC(C)C[C@@H]1NC(=O)[C@H](CC(N)=O)NC(=O)[C@H](Cc2cccnc2)N(C)C(=O)[C@@H](Cc2cccc(C(N)=O)c2)NC(=O)CSC[C@@H](C(N)=O)NC(=O)[C@H](Cc2cn(C)c3ccccc23)NC(=O)[C@H](CCCCNC(N)=O)NC(=O)[C@H](Cc2cn(C)c3c(Cl)cccc23)NC(=O)[C@H](Cc2cccnc2)N(C)C(=O)[C@H](CO)NC1=O [PDC_EphA2-00026601, df3CON-Me3Py-N-L-S-Me3Py-W1Me7Cl-Hcit-W1Me-C-NH2] ({CH2CO}-[dPhe(3-CONH2)][NMe3Pal]NLS[NMe3Pal][Trp(1-Me,7-Cl)][hCit][Trp(1-Me)]C-NH2; thioether N-10)",1 to 10
2,"CN1C(=O)[C@H](CO)NC(=O)[C@H](C2CCC2)NC(=O)[C@H](CC(N)=O)NC(=O)[C@H](Cc2cccnc2)N(C)C(=O)[C@@H](Cc2cccc(C(N)=O)c2)NC(=O)CSC[C@@H](C(N)=O)NC(=O)[C@H](Cc2cn(C)c3ccccc23)NC(=O)[C@H](CCCCNC(N)=O)NC(=O)[C@H](Cc2cn(C)c3c(Cl)cccc23)NC(=O)[C@@H]1Cc1cccnc1 [PDC_EphA2-00026602, df3CON-Me3Py-N-Cbg-S-Me3Py-W1Me7Cl-Hcit-W1Me-C-NH2] ({CH2CO}-[dPhe(3-CONH2)][NMe3Pal]N[Gly(cBu)]S[NMe3Pal][Trp(1-Me,7-Cl)][hCit][Trp(1-Me)]C-NH2; thioether N-10)",< 1
3,"CN1C(=O)[C@H](CCC(=O)NC[C@H](O)[C@@H](O)[C@H](O)[C@H](O)CO)NC(=O)[C@H](C2CCC2)NC(=O)[C@H](CC(N)=O)NC(=O)[C@H](Cc2cccnc2)N(C)C(=O)[C@@H](Cc2cccc(C(N)=O)c2)NC(=O)CSC[C@@H](C(N)=O)NC(=O)[C@H](Cc2cn(C)c3ccccc23)NC(=O)[C@H](CCCCNC(=O)N2CCN(CC(=O)O)CC2)NC(=O)[C@H](Cc2cn(C)c3c(Cl)cccc23)NC(=O)[C@@H]1Cc1cccnc1 [PDC_EphA2-00026603, df3CON-Me3Py-N-Cbg-Qglucamine-Me3Py-W1Me7Cl-KCOpipzaa-W1Me-C-NH2] ({CH2CO}-[dPhe(3-CONH2)][NMe3Pal]N[Gly(cBu)]E(NH(1-deoxy-D-glucityl))[NMe3Pal][Trp(1-Me,7-Cl)]K([CO-Piperazinyl(4-CH2COOH)])[Trp(1-Me)]C-NH2; thioether N-10)",< 1
4,"CN1C(=O)[C@H](CCC(=O)NC[C@H](O)[C@@H](O)[C@H](O)[C@H](O)CO)NC(=O)[C@H](C2CCC2)NC(=O)[C@H](CC(N)=O)NC(=O)[C@H](Cc2cccnc2)N(C)C(=O)[C@@H](Cc2cccc(C(N)=O)c2)NC(=O)CSC[C@@H](C(N)=O)NC(=O)[C@H](Cc2cn(C)c3ccccc23)NC(=O)[C@H](CCC(=O)NC[C@H](O)[C@@H](O)[C@H](O)[C@H](O)CO)NC(=O)[C@H](Cc2cn(C)c3c(Cl)cccc23)NC(=O)[C@@H]1Cc1cccnc1 [PDC_EphA2-00026604, df3CON-Me3Py-N-Cbg-Qglucamine-Me3Py-W1Me7Cl-Qglucamine-W1Me-C-NH2] ({CH2CO}-[dPhe(3-CONH2)][NMe3Pal]N[Gly(cBu)]E(NH(1-deoxy-D-glucityl))[NMe3Pal][Trp(1-Me,7-Cl)]E(NH(1-deoxy-D-glucityl))[Trp(1-Me)]C-NH2; thioether N-10)",< 1
5,"CN1C(=O)[C@H](CCC(=O)NC[C@H](O)[C@@H](O)[C@H](O)[C@H](O)CO)NC(=O)[C@H](C2CCC2)NC(=O)[C@H](CC(N)=O)NC(=O)[C@H](Cc2ccnc(N)c2)N(C)C(=O)[C@@H](Cc2cccc(C(N)=O)c2)NC(=O)CSC[C@@H](C(N)=O)NC(=O)[C@H](Cc2cn(C)c3ccccc23)NC(=O)[C@H](CCCCNC(=O)N2CCN(CC(=O)O)CC2)NC(=O)[C@H](Cc2cn(C)c3c(Cl)cccc23)NC(=O)[C@@H]1Cc1cccnc1 [PDC_EphA2-00026605, df3CON-Me4Py2NH2-N-Cbg-Qglucamine-Me3Py-W1Me7Cl-KCOpipzaa-W1Me-C-NH2] ({CH2CO}-[dPhe(3-CONH2)][X3]N[Gly(cBu)]E(NH(1-deoxy-D-glucityl))[NMe3Pal][Trp(1-Me,7-Cl)]K([CO-Piperazinyl(4-CH2COOH)])[Trp(1-Me)]C-NH2; thioether N-10)",1 to 10
6,"CN1C(=O)[C@H](CCCC(N)=O)NC(=O)[C@H](C2CCC2)NC(=O)[C@H](CC(N)=O)NC(=O)[C@H](Cc2cccnc2)N(C)C(=O)[C@@H](Cc2cccc(C(N)=O)c2)NC(=O)CSC[C@@H](C(N)=O)NC(=O)[C@H](Cc2cn(C)c3ccccc23)NC(=O)[C@H](CCCCNC(=O)N2CCN(CC(=O)O)CC2)NC(=O)[C@H](Cc2cn(C)c3c(Cl)cccc23)NC(=O)[C@@H]1CCC(=O)O [PDC_EphA2-00026606, df3CON-Me3Py-N-Cbg-Hgn-MeE-W1Me7Cl-KCOpipzaa-W1Me-C-NH2] ({CH2CO}-[dPhe(3-CONH2)][NMe3Pal]N[Gly(cBu)][Aad](NH2)[NMeE][Trp(1-Me,7-Cl)]K([CO-Piperazinyl(4-CH2COOH)])[Trp(1-Me)]C-NH2; thioether N-10)",< 1
7,"CN1C(=O)[C@H](CCC(=O)NC[C@H](O)[C@@H](O)[C@H](O)[C@H](O)CO)NC(=O)[C@H](C2CCC2)NC(=O)[C@H](CC(N)=O)NC(=O)[C@H](Cc2cccnc2)N(C)C(=O)[C@@H](Cc2cccc(C(N)=O)c2)NC(=O)CSC[C@@H](C(N)=O)NC(=O)[C@H](Cc2cn(C)c3ccccc23)NC(=O)[C@H](CCCCNC(N)=O)NC(=O)[C@H](Cc2cn(C)c3c(Cl)cccc23)NC(=O)[C@@H]1CCC(=O)O [PDC_EphA2-00026607, df3CON-Me3Py-N-Cbg-Qglucamine-MeE-W1Me7Cl-Hcit-W1Me-C-NH2] ({CH2CO}-[dPhe(3-CONH2)][NMe3Pal]N[Gly(cBu)]E(NH(1-deoxy-D-glucityl))[NMeE][Trp(1-Me,7-Cl)][hCit][Trp(1-Me)]C-NH2; thioether N-10)",< 1
8,"CN1C(=O)[C@H](CCCC(N)=O)NC(=O)[C@H](C2CCC2)NC(=O)[C@H](CC(N)=O)NC(=O)[C@H](Cc2cccc(O)c2)N(C)C(=O)[C@@H](Cc2cccc(C(N)=O)c2)NC(=O)CSC[C@@H](C(N)=O)NC(=O)[C@H](Cc2cn(C)c3ccccc23)NC(=O)[C@H](CCCCNC(=O)N2CCN(CC(=O)O)CC2)NC(=O)[C@H](Cc2cn(C)c3c(Cl)cccc23)NC(=O)[C@@H]1CCC(=O)O [PDC_EphA2-00026608, df3CON-MeF3H-N-Cbg-Hgn-MeE-W1Me7Cl-KCOpipzaa-W1Me-C-NH2] ({CH2CO}-[dPhe(3-CONH2)][NMemTyr]N[Gly(cBu)][Aad](NH2)[NMeE][Trp(1-Me,7-Cl)]K([CO-Piperazinyl(4-CH2COOH)])[Trp(1-Me)]C-NH2; thioether N-10)",< 1
9,"CN1C(=O)[C@H](CCCC(N)=O)NC(=O)[C@H](C2CCC2)NC(=O)[C@H](CC(N)=O)NC(=O)[C@H](Cc2cccnc2)N(C)C(=O)[C@@H](Cc2cccc(C(N)=O)c2)NC(=O)CSC(C)(C)[C@@H](C(N)=O)NC(=O)[C@H](Cc2cn(C)c3ccccc23)NC(=O)[C@H](CCCCNC(=O)N2CCN(CC(=O)O)CC2)NC(=O)[C@H](Cc2cn(C)c3c(Cl)cccc23)NC(=O)[C@@H]1CCC(=O)O [PDC_EphA2-00026609, df3CON-Me3Py-N-Cbg-Hgn-MeE-W1Me7Cl-KCOpipzaa-W1Me-CdMe-NH2] ({CH2CO}-[dPhe(3-CONH2)][NMe3Pal]N[Gly(cBu)][Aad](NH2)[NMeE][Trp(1-Me,7-Cl)]K([CO-Piperazinyl(4-CH2COOH)])[Trp(1-Me)][Pen]-NH2; thioether N-10)",1 to 10
10,"C[C@@H]1SCC(=O)N[C@H](Cc2cccc(C(N)=O)c2)C(=O)N(C)[C@@H](Cc2cccnc2)C(=O)N[C@@H](CC(N)=O)C(=O)N[C@@H](C2CCC2)C(=O)N[C@@H](CCCC(N)=O)C(=O)N(C)[C@@H](CCC(=O)O)C(=O)N[C@@H](Cc2cn(C)c3c(Cl)cccc23)C(=O)N[C@@H](CCCCNC(=O)N2CCN(CC(=O)O)CC2)C(=O)N[C@@H](Cc2cn(C)c3ccccc23)C(=O)N[C@@H]1C(N)=O [PDC_EphA2-00026610, df3CON-Me3Py-N-Cbg-Hgn-MeE-W1Me7Cl-KCOpipzaa-W1Me-C3SMe-NH2]",1 to 10
11,"C[C@H]1SCC(=O)N[C@H](Cc2cccc(C(N)=O)c2)C(=O)N(C)[C@@H](Cc2cccnc2)C(=O)N[C@@H](CC(N)=O)C(=O)N[C@@H](C2CCC2)C(=O)N[C@@H](CCCC(N)=O)C(=O)N(C)[C@@H](CCC(=O)O)C(=O)N[C@@H](Cc2cn(C)c3c(Cl)cccc23)C(=O)N[C@@H](CCCCNC(=O)N2CCN(CC(=O)O)CC2)C(=O)N[C@@H](Cc2cn(C)c3ccccc23)C(=O)N[C@@H]1C(N)=O [PDC_EphA2-00026611, df3CON-Me3Py-N-Cbg-Hgn-MeE-W1Me7Cl-KCOpipzaa-W1Me-C3RMe-NH2]",< 1

# Molecular target: T2, Recombinant Human EphA2 Fc Protein (Fc tag, Elabscience) (human, UniProt P29317 24-534)
# T2 construct: Bought protein (Elabscience), captured with the Human Antibody Capture kit; also called hEphA2; not shown: Fc tag of the commercial protein
# T2 sequence (P29317 24-534 limits assumed): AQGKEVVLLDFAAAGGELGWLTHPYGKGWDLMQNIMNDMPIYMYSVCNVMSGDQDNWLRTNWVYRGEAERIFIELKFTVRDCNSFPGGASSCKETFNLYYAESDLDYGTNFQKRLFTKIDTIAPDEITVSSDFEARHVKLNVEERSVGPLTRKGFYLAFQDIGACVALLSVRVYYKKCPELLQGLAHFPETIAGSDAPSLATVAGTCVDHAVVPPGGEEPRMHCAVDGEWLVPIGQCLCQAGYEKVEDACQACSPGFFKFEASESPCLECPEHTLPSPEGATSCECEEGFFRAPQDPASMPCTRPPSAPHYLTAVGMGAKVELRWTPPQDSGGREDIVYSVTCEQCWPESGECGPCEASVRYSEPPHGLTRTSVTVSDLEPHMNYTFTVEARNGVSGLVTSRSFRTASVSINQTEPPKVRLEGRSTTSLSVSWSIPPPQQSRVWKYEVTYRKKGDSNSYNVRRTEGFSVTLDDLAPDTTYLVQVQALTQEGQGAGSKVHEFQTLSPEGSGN
# Experiment: SPR Biacore T200, EphA2-Fc captured, single-cycle kinetics; grade, legend 0 < A ≤ 1 nM
# Details: not given
# Procedure: The HBS-P+ buffer (10 mM HEPES (pH7.4), 150 mM NaCl, 0.05% (v/V) Surfactant P20) containing 1% DMSO was used as running buffer. Recombinant Human EphA2 Fc Protein (Fc tag, Elabscience) was captured by Human Antibody Capture kit (Cytiva). Peptide samples in DMSO were diluted with running buffer, and prepared five serial dilutions. Using these serial dilutions, kinetics of peptides against EphA2 was measured at a flow rate of 30 mL/min at 25° C. The method adopted for sample measurement was a single-cycle kinetics method. The analysis was conducted using the evaluation software 3.0 provided with Biacore T200. Kinetics fitting was done on the difference data obtained by subtracting the baseline data from sample measurement data. KD values were calculated based on the association rate constant (ka) and dissociation rate constant (kd).
row,Molecule,Kd [nM]
1,B1,≤ 1
2,B2,≤ 1
